{"source": "paper PMC11188199", "about": "“Development and validation of a generic methyltransferase enzymatic assay based on an SAH riboswitch” (SLAS discovery : advancing life sciences R & D, 2024)", "key": {"[1]": {"target": "T1, nsp14 (Severe acute respiratory syndrome coronavirus 2, UniProt P0DTD1)"}, "[2]": {"tested_on": "Dar-1 split aptamer", "experiment": "Split aptamer SAH assay with TR-FRET readout (AptaFluor), equilibrium binding", "parameters": "species or system D. aromatica", "details": "for EC50: n = 3, plates read at 3 hr"}, "[3]": {"target": "SAH riboswitches", "parameters": "method as in PMID 18374645", "details": "native SAH riboswitch; cited from earlier work"}, "[4]": {"tested_on": "split Dar-1 riboswitch (Dar1 P1/P2)", "experiment": "Split aptamer SAH assay with FP readout", "type": "binding, D. aromatica", "source_text": "Based on a literature review and preliminary testing, an SAH riboswitch from D. aromatica (Dar-1) was chosen for development of a split aptamer-based assay. […] We tested these configurations with a far red fluor on the shorter P2 element, allowing FP-based detection (Fig. 1A). […] Generally, a shift of at least 100 mP @ ≤ 10 % substrate conversion is desirable for HTS. It is likely that the FP signal is limited by the relatively modest difference in size between the free P2 RNA and the liganded P1–P2 complex. In this regard, attachment of one half of a split DNA aptamer to a silver nanoparticle produced a lactoferrin sensor with a signal greater than 100 mP [32]; to our knowledge, this is the only other example of a split aptamer-based assay with an FP readout. Attempts to use a similar approach by attaching Streptavidin to the P1 oligomer were not successful (data not shown).\nFig. 1. Split aptamer SAH assay with FP readout. A. SAH dependent assembly of split aptamer (Dar1 P1/P2) causes increase in polarization of a fluor attached to the P2 element. B. SAH titration, showing concentration dependence and stability of signal. C. Comparison of response to SAH, SAM and ATP. D. Standard curve mimicking enzymatic conversion of 200 nM SAM to SAH. E. Titration of PRMT3 in the presence of 500 nM SAM and Histone H4 peptide substrate. […]"}, "[5]": {"tested_on": "METTL3/METTL14", "details": "cited from earlier work"}, "[6]": {"target": "T1, nsp14", "details": "read-out: SAM Km; cited from earlier work"}, "[7]": {"target": "PRMT5", "parameters": "method as in PMID 34583982", "details": "RapidFire MS SAH detection; read-out: kiApp; cited from earlier work"}, "[8]": {"tested_on": "C[S+](CC[C@H](N)C(=O)[O-])C[C@H]1O[C@@H](n2cnc3c(N)ncnc32)[C@H](O)[C@@H]1O", "experiment": "purified protein, by the assay type", "details": "other: data not shown"}, "[9]": {"tested_on": "PRMT5", "parameters": "method as in PMID 25915199", "details": "read-out: IC50 (published value); cited from earlier work"}}, "data": [{"compound": "O=C1C(Cl)=C(NCCN2CCOCC2)C(=O)c2ncccc21", "note": "[NSC-663284]", "values": [{"measurement": "inhibition of nsp14 enzymatic activity in dose response mode", "setting": "[1]", "value": "dose-dependent response"}]}, {"compound": "Nc1ncnc2c1ncn2[C@@H]1O[C@H](CSCC[C@H](N)C(=O)O)[C@@H](O)[C@H]1O", "note": "[SAH, S-adenosylhomocysteine]", "values": [{"measurement": "observed selectivity (SAH vs SAM)", "setting": "[2]; highly purified preparation of SAM", "value": "more than 1000 fold"}, {"measurement": "EC50", "setting": "[2]", "value": 20, "unit": "nM"}, {"measurement": "Kd", "setting": "[3]", "value": 20, "unit": "nM"}, {"measurement": "selectivity vs. SAM", "setting": "[4]", "value": "greater than 200 fold"}, {"measurement": "Kd", "setting": "[4]; split aptamer construct", "value": 22, "unit": "nM"}]}, {"compound": "C[S+](CC[C@H](N)C(=O)[O-])C[C@H]1O[C@@H](n2cnc3c(N)ncnc32)[C@H](O)[C@@H]1O", "note": "(stereo partly shown) [SAM, S-adenosylmethionine]", "values": [{"measurement": "Km", "setting": "[5]; ssRNA substrate similar to the 28mer, read-out: SAM Km", "value": "~0.2", "unit": "µM"}, {"measurement": "Km", "setting": "[6]", "value": 0.257, "unit": "µM"}, {"measurement": "EC50", "setting": "[2]", "value": 23000, "unit": "nM"}, {"measurement": "affinity fold lower than for SAH", "setting": "[3]", "value": "at least 1000 fold"}]}, {"compound": "CNc1cc(N2CCC3(CC2)CN(c2cc(F)c(CN4CCC(C)(C)CC4)cc2F)CC(=O)N3)ncn1", "note": "[UZH2, reference compound]", "values": [{"measurement": "IC50", "setting": "[5]; read-out: IC50 (published value)", "value": 5, "unit": "nM"}]}, {"compound": "Nc1nc2cc(CC[C@H]3C[C@@H](n4ccc5c(N)ncnc54)[C@H](O)[C@@H]3O)ccc2cc1Br", "note": "[JNJ64619178]", "values": [{"measurement": "Ki", "setting": "[7]", "value": 0.772, "unit": "nM"}]}, {"compound": "nsp14 (Severe acute respiratory syndrome coronavirus 2)", "values": [{"measurement": "Km", "setting": "[8]", "value": 0.06, "unit": "µM"}]}, {"compound": "Nc1ncnc2c1ncn2[C@@H]1O[C@H](CO)[C@@H](O)[C@H]1O", "note": "[adenosine]", "values": [{"measurement": "EC50", "setting": "[2]", "value": 108000, "unit": "nM"}]}, {"compound": "CC1(C)C(=O)N=C2C1=C(O)C(=O)c1ccccc12", "note": "[BVT-948]", "values": [{"measurement": "inhibition of nsp14 enzymatic activity in dose response mode", "setting": "[1]", "value": "dose-dependent response"}]}, {"compound": "O=C(NC[C@H](O)CN1CCc2ccccc2C1)c1ccnc(NC2CCC2)c1", "note": "[GSK591]", "values": [{"measurement": "IC50", "setting": "[9]", "value": 22, "unit": "nM"}]}]}
